pIC50: −log10 of the molar value. Calls of active or inactive are those of the source. No cut-off for these calls is given here.
Columns and labels:
Type in all cases: functional, cell-based
[1] = test system: HeLa; assay: Cytotoxicity against human HeLa cells assessed as reduction in cell viability after 72 hrs by WST8 assay
[2] = test system: HeLa; assay: Induction of apoptosis in human HeLa cells assessed as loss of cytoplasmic and nuclear integrity at 25 uM after 72 hrs by acridine orange/Hoechst 33342 staining based microscopic method
[3] = test system: HeLa; assay: Induction of apoptosis in human HeLa cells assessed as nuclear fragmentation at 25 uM after 72 hrs by acridine orange/Hoechst 33342 staining based microscopic method

| Compound | pIC50 [1] | Activity [2] | Activity [3] |
| --- | --- | --- | --- |
| COC(=O)/C=C/c1cc(OC)c2c(c1)[C@H](CO)[C@@H](c1ccc(O)c(OC)c1)O2 | 4.05 |  |  |
| COC(=O)/C=C/c1cc(OC)c2c(c1)[C@@H](CO)[C@H](c1ccc(O)c(OC)c1)O2 | 4.68 | Active | Active |
| COC(=O)/C=C\c1cc(OC)c2c(c1)[C@@H](CO)[C@H](c1ccc(O)c(OC)c1)O2 | 4.06 |  |  |
| COC(=O)/C=C\c1cc(OC)c2c(c1)[C@H](CO)[C@@H](c1ccc(O)c(OC)c1)O2 | 4.10 |  |  |
| COC(=O)/C=C/c1cc(OC)c2c(c1)[C@@H](CO)[C@@H](c1ccc(O)c(OC)c1)O2 | 3.98 |  |  |
| COC(=O)/C=C\c1cc(OC)c2c(c1)[C@@H](CO)[C@@H](c1ccc(O)c(OC)c1)O2 | 4.49 |  |  |
| COC(=O)/C=C\c1cc(OC)c2c(c1)[C@H](CO)[C@H](c1ccc(O)c(OC)c1)O2 | 3.99 |  |  |
| COC(=O)/C=C/c1cc(OC)c2c(c1)[C@H](CO)[C@H](c1ccc(O)c(OC)c1)O2 | 4.02 |  |  |
| O=c1[nH]cc(F)c(=O)[nH]1 [FLUOROURACIL] | 4.86 |  |  |
